From patent US20230013435A1, “COMPOSITION FOR TREATING SYNUCLEINOPATHIES” (STANDIGM INC., priority 2019, published 2023)

Test system: SH-SYSY cell line
Test: Cytotoxicity, cell viability by MTT test
Type: cell-based
Conditions: SH-SYSY cells
Experimental: An SH-SYSY cell line (ATCC) was used to confirm the cytotoxicity of nevirapine. The SH-SYSY cell line was seeded in a 96-well plate, cultured, treated with an increasing concentration (0, 10, 100 μM) of nevirapine, and then incubated at a constant temperature for 24 hours. Thereafter, cell viability was measured using an MTT test method. Cells treated with 0 μM nevirapine were used as the control. ***P<0.001 against the control. Also, in the next experiment, the cytotoxicity of pirenzepine to be used as a reference drug was tested in the same manner as in the cytotoxicity experiment of nevirapine.

| SMILES | cell viability compared with the control (10 μM, 24 hours) | decrease in cell viability (100 μM, 24 hours) | cell viability compared with the control (0.5 μM) | decrease in cell viability (10 μM) |
| --- | --- | --- | --- | --- |
| Cc1ccnc2c1NC(=O)c1cccnc1N2C1CC1 [nevirapine, 11-cyclopropyl-5,11-dihydro-4-methyl-6H-dipyrido[3,2-b:2′,3′-e][1,4]diazepin-6-one] | not changed significantly | approximately 70% |  |  |
| CN1CCN(CC(=O)N2c3ccccc3C(=O)Nc3cccnc32)CC1 [pirenzepine] |  |  | slight decrease | approximately 60% |
